Source: the METLIN SMRT retention time set (Domingo-Almenara et al. 2019)

Assay: gradient 5% acetonitrile 3 min, to 50% in 2 min, to 85% in 15 min, held 3 min, 100 µL/min
Conditions: column: Zorbax Extend-C18 2.1 x 50 mm; eluents: water / acetonitrile, 0.1% formic acid
Procedure, shortened: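 Retention time was recorded from adduct peaks, which were picked computationally and each inspected manually. Pure standards ran in mixtures of ~100 molecules on HPLC coupled to a quadrupole time-of-flight mass spectrometer, in positive and negative ionization mode, through a Zorbax Extend-C18 column (2.1 × 50 mm, 1.8 μm) at 100 μL/min. Eluents were water and acetonitrile, each with 0.1% formic acid.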

Work on `COC1CCC12CCN(S(=O)(=O)c1ccc(C)cc1)CC2` (stereo unspecified) yielded an RP-LC retention time of 1020 s.

In the case of `O=C1NC2(CCN(C(=O)c3cccc(Cl)c3)CC2)N=C1c1ccccc1`, the RP-LC retention time is reported as 832 s.

With `Cn1nc(C(=O)N2CCCN(c3cc(-c4ccccc4)[nH]n3)CC2)c2ccccc21` the RP-LC retention time was 700 s.

Compound `CCOC(=O)c1cc(S(=O)(=O)N2CCCC2C(=O)Nc2nc3ccc(OC)cc3s2)cn1C` (stereo unspecified) has an RP-LC retention time of 947 s.

Work on `CCOc1ccccc1NC(=O)c1ccccc1[N+](=O)[O-]` yielded an RP-LC retention time of 823 s.

`Cc1nc2ccn(Cc3cccs3)c(=O)c2cc1C(=O)N1CCN(c2ccccn2)CC1` showed an RP-LC retention time of 611 s.

Work on `CCCn1c(=O)sc2cc(S(=O)(=O)N3CCC(C(=O)Nc4ccc(C)c(C)c4)CC3)ccc21` yielded an RP-LC retention time of 1030 s.

`O=C1C(=O)N(C2CCN(S(=O)(=O)c3ccc(F)c(F)c3)CC2)CCN1Cc1ccccc1` showed an RP-LC retention time of 827 s.

In the case of `O=c1c2cnc3nc(-c4ccc(Cl)cc4)nn3c2ccn1CCCO`, the RP-LC retention time is reported as 714 s.

`COC(=O)c1ncn2c1C(=O)N(c1ccccc1C)C(C)(C(=O)NCc1ccc(C)cc1)C2` (stereo unspecified) showed an RP-LC retention time of 726 s.

With `CNc1nc(Nc2cc(F)ccc2F)nc2ccccc12` the RP-LC retention time was 675 s.

Compound `O=C(c1cccs1)N1CCN(c2cnn3c(C4CC4)nnc3c2)CC1` has an RP-LC retention time of 625 s.

With `Fc1ccc(-c2nnc(Cc3nc(-c4cccc(F)c4)no3)o2)cc1` the RP-LC retention time was 990 s.

Compound `CC(=O)N1c2ccc(S(=O)(=O)N3CCCCCC3)cc2CC1C(=O)NC1CCCCCC1` (stereo unspecified) has an RP-LC retention time of 959 s.

For `CN1CC(=O)N(CC(=O)Nc2ccc(-c3nc4ccccc4[nH]3)cc2)c2ccccc2C1=O`, the RP-LC retention time was 607 s.

With `COc1ccc(OC)c(NC(=O)N2CCc3c(c(C(=O)N4CCCC4)nn3C)C2)c1` the RP-LC retention time was 718 s.

Work on `COCC1CN(C(C)=O)CC12CCN(C(=O)CSC)CC2` (stereo unspecified) yielded an RP-LC retention time of 602 s.

Work on `CCCN1CCN(CCCNC(=O)CN2C(=O)CCn3nc(-c4cn(C)c5ccccc45)cc32)CC1` yielded an RP-LC retention time of 589 s.

Compound `Cc1noc2nc(CCC(=O)NCc3ccccc3F)nc(N3CCCC3)c12` has an RP-LC retention time of 767 s.

In the case of `CCn1cnc(S(=O)(=O)N2CCC(C(=O)NC3CCCCCCC3)CC2)c1`, the RP-LC retention time is reported as 769 s.

`CC(C)N1C(=O)c2cccnc2Sc2cc(C(=O)N3CCCN(C)CC3)ccc21` showed an RP-LC retention time of 596 s.

Compound `Cc1nn(CC(=O)NCCN2CCCCC2C)c(=O)c2nc(-c3ccccc3)sc12` (stereo unspecified) has an RP-LC retention time of 645 s.

`CC(=O)Nc1ccc(C2(C(=O)NCc3cccc(C)c3)CCC2)cc1` gave an RP-LC retention time of 773 s.

Compound `O=C(NC1CCCCC1)N1CCCCC1c1nncn1CC1CC1` (stereo unspecified) has an RP-LC retention time of 704 s.

With `N#Cc1ccc2c(c1)N(CCCN1CCC(O)CC1)c1ccccc1S2` the RP-LC retention time was 743 s.

`Cc1ccc(F)c(NS(=O)(=O)c2cc(-c3[nH]ncc3C(=O)N3CCCC3)oc2C)c1` gave an RP-LC retention time of 710 s.

Work on `Cc1nc2cc(N3CCCC(C(=O)Nc4ccc5c(c4)OCCO5)C3)cnc2nc1C` (stereo unspecified) yielded an RP-LC retention time of 711 s.

Compound `CCOC(=O)c1cccc(NC(=O)CN2C(=O)C(C)(C)c3ccccc32)c1` has an RP-LC retention time of 900 s.

In the case of `Cc1c(C(=O)NC2CCS(=O)(=O)C2)nnn1-c1ccccc1F` (stereo unspecified), the RP-LC retention time is reported as 656 s.

With `COc1ccc(-c2cc3c(=O)n(Cc4noc(CN5CCC(C)CC5)n4)ccn3n2)cc1` the RP-LC retention time was 664 s.

Compound `O=C(NCC1CCCO1)c1cccn1Cc1noc(-c2ccccc2)n1` (stereo unspecified) has an RP-LC retention time of 855 s.

Compound `COc1ccc(NC(=O)C2CCN(S(=O)(=O)c3ccc4[nH]c(=O)ccc4c3)CC2)cc1Cl` has an RP-LC retention time of 752 s.

Work on `CC(C)(C)c1ccc(-c2nc(-c3ccc(S(=O)(=O)N4CCOCC4)cc3)no2)cc1` yielded an RP-LC retention time of 1400 s.

Compound `Cc1ccc(C)c(N2CCN(CC(O)c3ccc4c(c3)OCO4)CC2)c1` (stereo unspecified) has an RP-LC retention time of 732 s.

`O=C(Nc1ccc(OCC(=O)N2CCN(c3ncccn3)CC2)nc1)C1CC1` gave an RP-LC retention time of 624 s.

With `CC1=C(c2cccc(Cl)c2)S(=O)(=O)N=C1N1CCCN(C(=O)CC(C)C)CC1` the RP-LC retention time was 868 s.
